Assay results taken from the supplement of paper PMC10307832.

Columns and labels:
Test in all cases: relative viability (nuclei count vs DMSO), 5 days (fraction); higher = more cells survive
[1] = compound: CC[C@H](Nc1ncnc2[nH]cnc12)c1nc2cccc(F)c2c(=O)n1-c1ccccc1 [Idelalisib] + COc1cccc2cc(-c3nc([C@H]4CC[C@H](C(=O)O)CC4)n4ncnc(N)c34)[nH]c12 [OSI-027] (partner 0.5 µM)
How it was run: (§1)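 Relative viability divides the nuclei count in treated wells by that in vehicle wells. Lung cancer cell lines were seeded in 1536-well plates, dosed by pin tool the next day, and fixed and stained after 5 days in one step with final 0.05% Triton X-100, 1% formaldehyde and 1 ug/ml Hoechst. Dosing was a single drug or a fixed anchor-drug dose plus five library-drug doses (not always all listed) in √10 steps, and values are medians of duplicate plates imaged at 4×.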

[2] = compound: CC[C@H](Nc1ncnc2[nH]cnc12)c1nc2cccc(F)c2c(=O)n1-c1ccccc1 [Idelalisib] + O=C(c1cc(Cc2n[nH]c(=O)c3ccccc23)ccc1F)N1CCN(C(=O)C2CC2)CC1 [Olaparib] (partner 8 µM)
How it was run: as §1

[3] = compound: Nc1nc2[nH]cc(CCc3ccc(C(=O)N[C@@H](CCC(=O)O)C(=O)O)cc3)c2c(=O)[nH]1 [Pemetrexed] + Cc1nc(NC(=O)N2CCC[C@H]2C(N)=O)sc1-c1ccnc(C(C)(C)C(F)(F)F)c1 [Alpelisib] (partner 2 µM)
How it was run: as §1

[4] = compound: Nc1nc2[nH]cc(CCc3ccc(C(=O)N[C@@H](CCC(=O)O)C(=O)O)cc3)c2c(=O)[nH]1 [Pemetrexed] + O=C(c1cc(Cc2n[nH]c(=O)c3ccccc23)ccc1F)N1CCN(C(=O)C2CC2)CC1 [Olaparib] (partner 8 µM)
How it was run: as §1

Cell Line	relative viability ([1]; first compound 0.04 µM)	relative viability ([1]; first compound 0.1265 µM)	relative viability ([1]; first compound 0.4 µM)	relative viability ([1]; first compound 1.265 µM)	relative viability ([1]; first compound 4 µM)	relative viability ([2]; first compound 0.04 µM)	relative viability ([2]; first compound 0.1265 µM)	relative viability ([2]; first compound 0.4 µM)	relative viability ([2]; first compound 1.265 µM)	relative viability ([2]; first compound 4 µM)	relative viability ([3]; first compound 0.002 µM)	relative viability ([3]; first compound 0.006325 µM)	relative viability ([3]; first compound 0.02 µM)	relative viability ([3]; first compound 0.06325 µM)	relative viability ([3]; first compound 0.2 µM)	relative viability ([4]; first compound 0.002 µM)	relative viability ([4]; first compound 0.006325 µM)	relative viability ([4]; first compound 0.02 µM)	relative viability ([4]; first compound 0.06325 µM)	relative viability ([4]; first compound 0.2 µM)
NCI-H1395	0.713	0.639	0.621	0.561	0.454	0.456	0.455	0.445	0.43	0.41	0.964	0.916	1.14	1.14	1.02	0.427	0.421	0.5	0.41	0.426
NCI-H1437	0.861	0.864	0.795	1.07	0.967	0.618	0.636	0.634	0.658	0.607	0.877	0.939	0.884	0.506	0.227	0.619	0.625	0.656	0.54	0.385
NCI-H1651	0.701	0.731	0.508	0.778	0.596	0.19	0.171	0.184	0.161	0.179	0.951	0.948	0.939	0.952	0.93	0.175	0.191	0.205	0.193	0.184
NCI-H1666	0.889	0.895	0.782	0.83	0.759	0.704	0.758	0.733	0.747	0.724	1.02	0.853	0.969	0.88	0.595	0.765	0.785	0.787	0.728	0.694
NCI-H1734	0.659	0.593	0.404	0.579	0.537	0.578	0.578	0.561	0.607	0.704	0.694	0.731	0.629	0.632	0.698	0.576	0.615	0.741	0.619	0.601
NCI-H1755	0.69	0.687	0.584	0.675	0.573	0.881	0.892	0.842	0.801	0.821	0.828	0.935	0.923	0.926	0.862	0.777	0.857	0.875	0.89	0.781
NCI-H1792	0.466	0.778	0.598	0.836	0.51	0.244	0.369	0.267	0.409	0.298	0.685	0.731	0.806	0.788	0.634	0.44	0.405	0.397	0.497	0.46
NCI-H1793	0.366	0.273	0.17	0.246	0.159	0.957	0.764	–	0.566	0.529	0.672	0.692	0.83	0.624	0.677	0.868	0.712	0.912	0.919	0.774
